Laboratory results as given in patent publication US8057810B2, “Peptide substance revealing an immunogeroprotective effect, pharmaceutical composition on its base and the method of its application” (priority 2006, dated 2011).
Residues, ends and D or L forms follow the SMILES beside them.

Columns and labels:
male guinea pigs = conditions: guinea pig, in vivo
Experimental: Common toxicity of H-Glu-Asp-Pro-OH was studied according to the requirements stated in the “Manual for experimental (pre-clinical) study of new pharmacological substances” (2005): acute toxicity in case of single administration of the substance and sub-acute and chronic toxicity in case of long-term administration of the peptide.
The study of acute toxicity was performed on 60 white mongrel male mice with body weight of 18-21 g. The animals were randomly subdivided into 6 equal groups. The substance was administered to the animals once, intramuscularly, in the doses of 1 mg/kg, 2 mg/kg, 3 mg/kg, 4 mg/kg, 5 mg/kg in 0.25 ml of sterile 0.9% NaCl solution. The control animals received 0.9% NaCl solution in the same volume. The study of subacute toxicity was performed on 50 white mongrel male rats with body weight of 170-210 g. Experimental animals received the substance daily, intramuscularly for 90 days in the doses of 1 μg/kg, 0.1 mg/kg, 1 mg/kg in 0.5 ml of sterile 0.9% NaCl solution. […] Upon completion of the experiment biochemical and coagulologic indices of the blood were also evaluated. […] Traditional methods were used for the evaluation of the following indices of the animals' peripheric blood: the quantity of erythrocytes, hemoglobin, reticulocytes, thrombocytes, leukocytes, leukocyte formula, erythrocyte sedimentation rate (ESR), erythrocyte resistance. […]

peritoneal macrophages = assay: Production of lymphocyte activation factors (LAF) by peritoneal macrophages; type: cell-based, mice
From the text: The peculiarities of LAF production by peritoneal macrophages in young and ageing mice, as well as the influence of peptide H-Glu-Asp-Pro-OH on this index were studied. LAF activity of the macrophages was estimated judging by their ability to exert a comitogenic effect on the proliferation of thymocytes, stimulated by suboptimal lectin doses in vitro.
The same tendency to the change in LAF production by macrophages was observed under the effect of peptide H-Glu-Asp-Pro-OH in young mice, but not in the whole range of studied concentrations.

rat thymus cells = assay: Premature aging induced by ionizing irradiation: rat thymus morphology and morphometry; type: in vivo, Wistar rats
Experimental: The experiments were conducted on 40 male Wistar rats 2 months old, weighing 180-210 g. Premature aging was modeled by gamma irradiation using LUCH-1 machine (source 60Co; dose output 17.166×10^−4 Gy/sec.). The animals were irradiated in the dose of 6 Gy daily for 5 days. All the animals were divided into 6 groups:
2 and 2a—irradiated rats;
3 and 3a—irradiated rats, subjected to subcutaneous injection of peptide H-Glu-Asp-Pro-OH in the dose of 0.5 μg per animal in 0.25 ml of sterile 0.9% NaCl solution in 24 hours after the first performance of irradiation for 10 days.
Animals of the 2 and 2a group received 0.9% NaCl solution in the same volume and following the same scheme. Slaughtering of the animals and extraction of their thymus were conducted using nembutal anaesthesia (50 mg/kg). Thymus in groups 1-3 was extracted on the 14th day after the experiment onset, in the 1a-3a groups—on the 21 day after the experiment onset.
Fragments of the extracted thymus were fixed for 24 hours in Buen sour liquid for optic microscopy. Material dehydration and filling it in with paraffin for optic microscopy were conducted according to conventional techniques. Paraffin sections (7 μm) were placed on a microscope slide covered with a poly-L-lysine film (Sigma). Histological and immunohistochemical examinations were carried out using Jenamed-2 microscope (Zeiss).
Review staining of the preparations was conducted by hematoxylin-eosin. Mast cells were selectively stained using 1% toluidine blue (Fluka) solution in 0.5M HCl with pH 0.5.
For electron microscopy fragments of the extracted thymus were fixed according to Karnovsky's method. […]
The morphometric studies were conducted by means of the system for computer analysis of microscopic images Imstar using Morphostar and Colquant-2 software, in accordance with the basic principles of stereology and morphometry. […] Proliferative activity index (IPCNA) was calculated using the following formula: IPCNA(%)=NPCNA/Nnuclei×100.

[1] = ageing mice 19-20 months, 0.5 to 500 ng/ml
[2] = group 3: irradiated rats, 0.5 μg per animal s.c. for 10 days, 14th day

N[C@@H](CCC(=O)O)C(=O)N[C@@H](CC(=O)O)C(=O)N1CCC[C@H]1C(=O)O [Peptide H-Glu-Asp-Pro-OH, glutamyl-aspartyl-proline] (H-Glu-Asp-Pro-OH)
Changes in blood morphology, biochemical indices, ESR, erythrocyte resistance (male guinea pigs): no statistically significant changes | LAF production by non-stimulated peritoneal macrophages (peritoneal macrophages; [1]): induces the production of LAF | LAF production under the effect of LPS (peritoneal macrophages; [1]): increases the production of LAF | Change in LAF production by macrophages (peritoneal macrophages; young mice 2 months, not in the whole range of studied concentrations): same tendency | Number of mast cells in the thymus (rat thymus cells; [2]): 32±5 per 1 mm^2 | Proliferative activity index (IPCNA) in the thymus (rat thymus cells; [2]): 55% | Involution changes of the thymus (microscopic analysis) vs irradiated groups 2 and 2a (rat thymus cells; groups 3, 3a: irradiated rats, 0.5 μg per animal s.c., 14th and 21st day): less pronounced involution changes
